Measured values published in US20030022820A1, “IN VIVO ACTIVATION OF TUMOR-SPECIFIC CYTOTOXIC T CELLS” (priority 1995, published 2003).
Several values for one entry are separate records, joined by “and”; a condition that tells them apart may be missing. Identical values can stand only once. Like-named read-outs stand apart in the source and are kept apart here.

Assays:
[1] = tested on: A2.1/K^b-Tg mice; assay: Peptide priming of A2.1/K^b-Tg mice, lytic activity of peptide-specific CTL; assay type: in vivo
[2] = biological target: HLA-A2.1 (Homo sapiens, UniProt P04439, D140Y/D185E/D98H/E176V/E277Q/G131W/G231S/I119V/I121R/I166T/I218V/L300P/L318F/N151K/N90K/P208A/P217A/Q86G/Q94H/R138H/R169H/T345S); assay: Competition assay for peptide binding to HLA-A2.1 (inhibition of A clone 12 lysis of M1-pulsed EA2 targets)
[3] = tested on: A2.1/K^b×CD8 or A2.1 transgenic (Tg) mice; assay: Immunization of transgenic mice with Her-2/neu peptides, cytotoxicity against peptide-pulsed T2-A2.1/K^b; assay type: in vivo; details: A2.1/K^b×CD8 or A2.1 Tg mice
Protocol: A2.1/K^b×CD8 and/or A2.1 transgenic mice were immunized with each of the peptides listed in Table 6 to determine if they could stimulate A2.1-restricted CTL. Mice were immunized with a mixture of 100 mg of the Her-2/neu peptide with 120 mg “helper” peptide in 100 ml Incomplete Freund's Adjuvant (IFA).
A2.1/K^b×CD8 or A2.1 lipopolysaccharide (LPS) -blasts were prepared as stimulators for in vitro restimulation of spleen cells from immunized mice. These were prepared by incubating splenocytes from A2/K^b or A2.1 mice in complete RPMI containing 25 mg/ml LPS and 7 mg/ml dextran sulfate at 1.5×10^6 cells/ml in a total volume of 30 ml for 3 days. […] Six days following in vitro restimulation, the CTL populations were assayed for lytic activity against T2-A2/K^b target cells preincubated with the peptide used for stimulation (15 mM). The resultant Her-2/neu peptide-specific CTL populations were maintained in vitro by weekly restimulation. […]
Spleen cells from injected animals were restimulated in vitro with irradiated syngeneic cells pulsed with the peptide used for in vivo priming. Immunogenicity was evaluated by assaying these cultured cells for cytotoxicity against T2-A2.1/K^b target cells pulsed with the priming peptide. […]

[4] = tested on: CASKI; assay: Cytotoxicity assay, lysis of human tumors by H3 and H7 specific CTL; assay type: cell-based
Protocol: (§1) […] target cells were incubated at 37° C. with […] of sodium ^51Cr chromate for 90 minutes in the presence or absence of specific peptide. Cells were washed three times and resuspended in 5% RPMI. For the assay, […] ^51Cr-labeled target cells were incubated with different concentrations of effector cells in a final volume of […] in U-bottomed 96-well plates. Supernatants were removed after 4-7 hrs at 37° C., and the percent specific lysis was determined by the following formula: [formula]
(§2) Tumor cells were preincubated for 24 hours prior to the assay in media supplemented with γ-interferon (γ-IFN, 20 ng/ml) plus tumor necrosis factor-α (TNF-α, 3 ng/ml). It is known that such pretreatment of tumor cells increases the expression of MHC I and adhesion molecules such as ICAM I on the surface of the cell thus enhancing their sensitivity to lysis by CTL. (See, e.g., Fisk, et al., Lympho. & Cytokine Res. 13: 125-131 (1994); Fady, et al., Cancer Immunol. Immunother. 37: 329-336 (1993).)

[5] = tested on: LG-2; assay: as above; assay type: cell-based
Protocol: as §1, §2

[6] = tested on: OVCAR-5; assay: as above; assay type: cell-based
Protocol: as §1, §2

[7] = tested on: SAOS.175; assay: as above; assay type: cell-based
Protocol: as §1, §2

[8] = tested on: SKMEL-5; assay: as above; assay type: cell-based
Protocol: as §1, §2

[9] = tested on: ST486; assay: as above; assay type: cell-based
Protocol: as §1, §2

[10] = tested on: SV80; assay: as above; assay type: cell-based
Protocol: as §1, §2

[11] = tested on: T98G; assay: as above; assay type: cell-based
Protocol: as §1, §2

[12] = tested on: U2-OS; assay: as above; assay type: cell-based
Protocol: as §1, §2

[13] = tested on: JY; assay: as above; assay type: cell-based; parameters: scale not given here
Protocol: as §1, §2

[14] = tested on: MALME-3M; assay: as above; assay type: cell-based; parameters: scale not given here
Protocol: as §1, §2

[15] = tested on: MDA.MB435; assay: as above; assay type: cell-based; parameters: scale not given here
Protocol: as §1, §2

[16] = E:T 60:1, T2A2/K^b targets pulsed with two mg of peptide, highest of at least three individual mice
[17] = peptide-priming of A2.1/K^b-Tg mice

AAPPVAPA [hu-wt-p53: 69-76]
Lytic Activity by Peptide-Specific CTL After Priming of A2.1/K^b-Tg Mice [Specific 51Cr release (%)] ([1]; mouse, in vivo): 0%

AAPPVAPAPA [hu-wt-p53: 69-78]
Lytic Activity by Peptide-Specific CTL After Priming of A2.1/K^b-Tg Mice [Specific 51Cr release (%)] [1, 16]: 0%

AAPPVAPAPAA [hu-wt-p53: 69-79]
Lytic Activity by Peptide-Specific CTL After Priming of A2.1/K^b-Tg Mice [Specific 51Cr release (%)] [1, 16]: 0%

AAPTPAAPA [hu-wt-p53: 78-86]
Lytic Activity by Peptide-Specific CTL After Priming of A2.1/K^b-Tg Mice [Specific 51Cr release (%)] [1, 16]: 0%

ASNENMETM [Flu NP 1934: 366-374, reference compound]
(%) [inhibition of A2.1-binding of M1 (58-66)] [2]: 4%

DLMLSPDDI [hu-wt-p53: 42-50]
Lytic Activity by Peptide-Specific CTL After Priming of A2.1/K^b-Tg Mice [Specific 51Cr release (%)] [1, 16]: 0%

GLAPPQHLI [hu-wt-p53: 187-195]
A2.1-binding activity / affinity, in words [2]: high
Lytic Activity by Peptide-Specific CTL After Priming of A2.1/K^b-Tg Mice [Specific 51Cr release (%)] [1, 16]: 1%
A2.1/K^b-restricted peptide-specific CTL response, in words [1, 17]: lack of CTL responsiveness

IISAVVGIL [Peptide H11]
ability to stimulate a CTL response in Tg mice, in words [3]: could not elicit a response

ILKEPVHGV [HIV-1 RT: 476-484, reference compound]
(%) [inhibition of A2.1-binding of M1 (58-66)] [2]: 72%
A2.1/K^b-restricted peptide-specific CTL response, in words ([1]; mouse, in vivo): could mount an A2.1/K^b-restricted CTL response
Lytic Activity by Peptide-Specific CTL After Priming of A2.1/K^b-Tg Mice [Specific 51Cr release (%)] ([1]; mouse, in vivo): 85%

ITLEDSSGNL [hu-wt-p53: 255-264]
A2.1-binding activity / affinity, in words [2]: intermediate
Lytic Activity by Peptide-Specific CTL After Priming of A2.1/K^b-Tg Mice [Specific 51Cr release (%)] [1, 16]: 3%
A2.1/K^b-restricted peptide-specific CTL response, in words [1, 17]: lack of CTL responsiveness

KLVGKLNWA [HIV-9K, reference compound]
Killing of Tumors Expressing Her-2/neu [4]: 8 and 11
Killing of Tumors Expressing Her-2/neu [5]: 1
Killing of Tumors Expressing Her-2/neu [6]: 10 and 12
Killing of Tumors Expressing Her-2/neu [7]: 18 and 11
Killing of Tumors Expressing Her-2/neu [8]: 5 and 4
Killing of Tumors Expressing Her-2/neu [9]: 1
Killing of Tumors Expressing Her-2/neu [10]: 2
Killing of Tumors Expressing Her-2/neu [11]: 9 and 13
Killing of Tumors Expressing Her-2/neu [12]: 18 and 24
Killing of Tumors Expressing Her-2/neu [13]: 2 and 1
Killing of Tumors Expressing Her-2/neu [14]: 2 and 1
Killing of Tumors Expressing Her-2/neu [15]: 4 and 3

LLGRDSFEV [mur-wt-p53: 261-269]
A2.1-binding activity / affinity, in words ([2]; competition with M1 (58-66)): highest A2.1-binding activity of all p53 peptides tested
Lytic Activity by Peptide-Specific CTL After Priming of A2.1/K^b-Tg Mice [Specific 51Cr release (%)] [1, 16]: 10%
A2.1/K^b-restricted peptide-specific CTL response, in words [1, 17]: No significant response
